Experimental data as given in PMC12280126, “Potent β-lactam-based tyrosyl-DNA phosphodiesterase 1 inhibitors identified by a virtual screen” (Scientific Reports, 2025).
“And” between values parts separate entries of the source, which are not always exact repeats. Identical values can stand only once. Counter-ions that a name gives are not always drawn. Like-named read-outs stand apart in the source and are kept apart here.

What was measured:
recombinant TDP1 = target: T1, recombinant TDP1 (Homo sapiens, UniProt Q9NUW8); assay: in vitro gel-based fluorescence TDP1 catalytic assay; format: biochemical; conditions: 15 min, room temperature
T1 construct: incubated with 40 pM full-length recombinant TDP1 or TDP1 (148–608)
Protocol: We subjected select virtual screen hits to evaluation of TDP1 inhibitory potencies using in vitro gel-based fluorescence TDP1 catalytic assays (Fig. 2). […] To further explore this class of compounds, we purchased from TargetMol a library of approximately 90 β-lactams as 10 mM solutions in DMSO. […] We examined TDP1 inhibitory potencies of the compounds using the in vitro gel-based fluorescence assays as previously described[21]–[24]. Briefly, a 5’-Cy5-labeled DNA substrate (N14Y, 5’-Cy5-[…]-pY-3’, 1 nM) was incubated in TDP1 reaction buffer with recombinant TDP1 or truncated TDP1(148–608) (40 pM) in the absence or presence of inhibitors for 15 min at room temperature. […] The TDP1 inhibition IC50 values were calculated based on gel images of the cleavage product (N14P, 5’-Cy5-[…]-p-3’) (Fig. 3A and Table S2).
(§1) The inhibition of TDP1 and TDP2 were conducted according to gel-based methods as previously described[21]–[24],[45]. Briefly, 1 nM of the DNA substrate (N14Y, 5´Cy5-[…]-pY-3´) was incubated with 40 pM full-length recombinant TDP1 or TDP1 (148–608) in the absence or presence of inhibitors for 15 min at room temperature in TDP1 reaction buffer (50 mM Tris-HCl, pH 7.5, 80 mM KCl, 2 mM EDTA, 1 mM DTT, 40 µg/mL BSA and 0.01% Tween 20). The inhibition of TDP2 was also conducted by using similar conditions. […] The reactions of both TDP1 and TDP2 were stopped by adding an equal volume of gel loading buffer (99.5% (v/v) formamide, 5 mM EDTA). The samples were then subjected to a 20% denaturing PAGE gel followed by gel scanning using a Typhoon FLA 9500 scanner (GE Healthcare). The IC50 values of the TDP1 inhibitors were calculated by comparing the percentage of the cleavage product (N14P, 5´Cy5-[…]-p-3´) produced to that in the DMSO control. The IC50 values of the TDP2 inhibitors were calculated by comparing the percentage of the cleavage product (PN18, 5’-p-[…]-Cy5-3’) produced to that in the DMSO control.

recombinant TDP2 = target: T2, recombinant TDP2 (Homo sapiens, UniProt O95551); assay: in vitro gel-based fluorescence TDP2 assay (counterscreen); format: biochemical; conditions: for IC50: 15 min, RT
T2 sequence (O95551 1-362): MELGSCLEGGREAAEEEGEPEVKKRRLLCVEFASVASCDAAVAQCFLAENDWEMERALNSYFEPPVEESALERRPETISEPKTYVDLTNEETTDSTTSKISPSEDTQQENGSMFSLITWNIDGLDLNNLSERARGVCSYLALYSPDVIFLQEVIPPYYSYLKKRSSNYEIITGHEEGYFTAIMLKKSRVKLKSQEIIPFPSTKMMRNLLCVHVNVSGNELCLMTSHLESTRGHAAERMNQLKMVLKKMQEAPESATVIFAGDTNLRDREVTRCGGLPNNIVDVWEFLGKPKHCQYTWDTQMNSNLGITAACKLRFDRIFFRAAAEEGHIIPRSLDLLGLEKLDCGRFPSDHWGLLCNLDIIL
Protocol: as §1

TDP1(148–608) [1] = target: T3, TDP1(148–608) (Homo sapiens, UniProt Q9NUW8); assay: gel-based fluorescence assay with truncated TDP1 compared with full-length TDP1; format: biochemical
T3 construct: SPR experiments were recorded for the truncated TDP1(148–608) and the β-lactam compound
Protocol: as §1

TDP1(148–608) [2] = target: T3, TDP1(148–608); assay: Surface plasmon resonance (SPR) binding analysis
Text: A central mechanism of action of β-lactam antibiotics involves covalent modification of serine residues in PBPs. However, β-lactams are also known to covalently modify proteins more broadly[35],[42]. Mass spectroscopy has proven to be invaluable in characterizing protein modification by β-lactams[43],[44]. […] We evaluated cephalosporin C (11) in SPR studies. For SPR, we immobilized the TDP1(148–608) on an SPR chip and measured the binding of compounds as a function of concentration.
SPR experiments were recorded for the truncated TDP1(148–608) and the β-lactam compound with Biacore T200 system (GE Healthcare). Using the amine coupling kit (Cytiva), 11,000 RU of TDP1 was covalently immobilized on a CM5 chip (Cytiva) via amine coupling. The β-lactam compounds were prepared in HBS-P buffer (Cytiva). Experiments in high-performance mode was carried out using five injections (30 µL/min) of increasing concentrations of the β-lactam (50 nM – 25 µM) passed over the sensor chip for 180 s, followed by a 1200 s dissociation. Buffer and reference signals were subtracted and binding affinities (Kd) were determined using the Biacore T200 evaluation software (GE Healthcare).

TDP1(148–608) [3] = target: T3, TDP1(148–608); assay: Intact mass and PTM-mapping mass spectrometry for covalent modification; conditions: enzyme-to-compound ratios 1:125 to 1:1000
Protocol: We also digested the TDP1 following incubation with the compounds.

[4] = test system: human colon cancer cell line HCT116; assay: Cell viability, synergistic effect with camptothecin (CPT); format: cell-based
Protocol: We undertook further assays to determine whether the β-lactams could act in cells as TDP1 inhibitors.
The synergistic effects of the TDP1 inhibitors with CPT were tested in human colon cancer cell line HCT116 based on cell viability[22],[23]. Cells were first seeded in a 384-well black-clear plate until 30% confluency and then incubated with a serial dilution of CPT at the range of 0-100 nM (0, 12.5, 25, 50, 100 nM) in the present or the absence of desired concentrations of TDP1 inhibitors for 72 h at 37 °C. DMSO was used as control. Viable cell numbers were counted from the brightfield images taken by Biotek Cytation 5.

[5] = 40 pM recombinant TDP1, 1 nM N14Y DNA substrate, read-out: TDP1 IC50
[6] = 40 pM recombinant TDP2, 1 nM YN18 DNA substrate, read-out: TDP2 IC50
[7] = TDP1 IC50, 40 pM recombinant TDP1, 1 nM N14Y DNA substrate
[8] = TDP2 IC50, 40 pM recombinant TDP2, 1 nM YN18 DNA substrate

T1 sequence (Q9NUW8 whole entry): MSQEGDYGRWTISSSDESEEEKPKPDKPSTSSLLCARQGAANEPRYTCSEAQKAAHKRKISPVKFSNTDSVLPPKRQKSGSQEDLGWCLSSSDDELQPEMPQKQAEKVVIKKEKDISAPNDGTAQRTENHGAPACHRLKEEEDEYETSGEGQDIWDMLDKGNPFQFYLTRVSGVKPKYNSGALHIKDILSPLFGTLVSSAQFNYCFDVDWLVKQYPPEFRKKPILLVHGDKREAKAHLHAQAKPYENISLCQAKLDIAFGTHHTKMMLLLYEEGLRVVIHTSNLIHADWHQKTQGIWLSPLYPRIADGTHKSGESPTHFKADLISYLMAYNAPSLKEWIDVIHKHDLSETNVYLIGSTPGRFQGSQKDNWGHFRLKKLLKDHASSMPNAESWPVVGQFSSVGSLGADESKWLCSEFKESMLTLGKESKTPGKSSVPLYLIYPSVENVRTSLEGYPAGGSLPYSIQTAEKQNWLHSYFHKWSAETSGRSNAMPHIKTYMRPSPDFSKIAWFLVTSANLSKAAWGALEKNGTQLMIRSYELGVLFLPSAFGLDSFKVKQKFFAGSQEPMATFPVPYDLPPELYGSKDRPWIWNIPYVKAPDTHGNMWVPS
T3 sequence (Q9NUW8 148-608): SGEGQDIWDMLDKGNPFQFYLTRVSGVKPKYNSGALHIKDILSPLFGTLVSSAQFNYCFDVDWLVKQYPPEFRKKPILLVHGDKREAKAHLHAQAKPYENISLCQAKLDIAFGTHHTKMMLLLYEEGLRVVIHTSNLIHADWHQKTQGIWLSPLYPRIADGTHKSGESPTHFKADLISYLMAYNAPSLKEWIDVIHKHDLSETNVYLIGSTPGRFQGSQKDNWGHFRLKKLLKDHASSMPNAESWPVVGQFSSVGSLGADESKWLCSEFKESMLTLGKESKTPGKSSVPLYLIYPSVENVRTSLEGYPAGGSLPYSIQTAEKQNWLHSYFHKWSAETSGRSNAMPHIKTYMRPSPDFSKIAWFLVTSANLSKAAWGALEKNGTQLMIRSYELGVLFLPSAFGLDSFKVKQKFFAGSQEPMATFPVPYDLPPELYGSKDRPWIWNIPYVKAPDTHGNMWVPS

Compound	IC50 (recombinant TDP1; [5])	IC50 (recombinant TDP2; [6]) [µM]	also measured
CC1(C)S[C@@H]2[C@H](NC(=O)[C@H](N)c3ccccc3)C(=O)N2[C@H]1C(=O)O [LD1, Ampicillin Trihydrate]	77.3 µM and < 100 µM and 77 µM	> 1000	
CO/N=C(\C(=O)N[C@@H]1C(=O)N2C(C(=O)O)=CCS[C@H]12)c1csc(N)n1 [LD9, Ceftizoxime]	10.8 µM and < 100 µM and 11 µM	37.6 ± 7.4	
CC(=O)OCC1=C(C(=O)O)N2C(=O)[C@@H](NC(=O)CCC[C@@H](N)C(=O)O)[C@H]2SC1 [11-Zn, Cephalosporin C Zinc salt]			IC50 (recombinant TDP1; read-out: TDP1 IC50, 40 pM recombinant TDP1, 1 nM N14Y DNA substrate): 5.3 µM; IC50 (recombinant TDP2; read-out: TDP2 IC50, 40 pM recombinant TDP2, 1 nM YN18 DNA substrate): 89.1 µM
CC1(C)S[C@@H]2[C@H](NC(=O)Cc3ccccc3)C(=O)N2[C@H]1C(=O)O [LC5, Benzylpenicillin potassium]	> 1000 µM	26.1 ± 3.35	
O=C1[C@H](CC[C@H](O)c2ccc(F)cc2)[C@@H](c2ccc(O)cc2)N1c1ccc(F)cc1 [LE9, Ezetimibe]	27.5 µM and < 100 µM and 27 µM	52.6	
CC(=O)OCC1=C(C(=O)O)N2C(=O)[C@@H](NC(=O)CCC[C@@H](N)C(=O)O)[C@H]2SC1 [LB2, Cephalosporin C zinc salt]			IC50 (recombinant TDP1; [7]): 5.54 µM and < 100 µM and 5.5 µM; IC50 (recombinant TDP2; [8]): 38.3 µM; greater potency against TDP1 than against TDP2 (recombinant TDP2; ratio of gel-based IC50 values): approximately 7 fold
CC1(C)S[C@@H]2[C@H](NC(=O)Cc3ccccc3)C(=O)N2[C@H]1C(=O)O [LD8, Procaine penicillin G]	84.8 µM and < 100 µM and 85 µM	77.4	
CO/N=C(\C(=O)N[C@@H]1C(=O)N2C(C(=O)O)=C(CSc3nnnn3C)CS[C@H]12)c1csc(N)n1 [LG4, Cefmenoxime hydrochloride]	> 1000 µM		
Nc1nc(/C(=C/CC(=O)O)C(=O)N[C@@H]2C(=O)N3C(C(=O)O)=CCS[C@H]23)cs1 [LD10, Ceftibuten dihydrate]	> 1000 µM		
CC(=O)OCC1=C(C(=O)O)N2C(=O)[C@@H](NC(=O)CCC[C@@H](N)C(=O)O)[C@H]2SC1 [compound 11, cephalosporin C]			loss of inhibitory potencies with only the C-terminal residues TDP1(148–608) compared with full-length TDP1 (TDP1(148–608) [1]): more than 50 fold; binding mode from SPR (compound eluted off the chip without impacting binding capacity) (TDP1(148–608) [2]): more likely bound non-covalently; Kd (TDP1(148–608) [2]; TDP1(148–608) immobilized on CM5 chip, 50 nM – 25 µM compound): 11.6 µM; covalent modification of TDP1 (intact mass analysis) (TDP1(148–608) [3]): not able to detect covalent modification of TDP1; IC50 (recombinant TDP1; [7]): 4.43 µM and 4.4 µM; IC50 (recombinant TDP2; [8]): > 100 µM; effect in combination with TOP1 inhibitor CPT on cell viability ([4]; HCT116, 25 µM, CPT 0-100 nM, 72 h): acted synergistically; cytotoxicity on its own ([4]; without CPT): no cytotoxicity
C[C@@H](O)[C@H]1C(=O)N2C(C(=O)O)=C(S[C@@H]3CN[C@H](C(=O)Nc4cccc(C(=O)O)c4)C3)[C@H](C)[C@H]12 [LD5, Ertapenem sodium]	> 1000 µM		
CO/N=C(\C(=O)N[C@@H]1C(=O)N2C(C(=O)O)=C(Cn3ccc(=N)n3CCO)CS[C@H]12)c1csc(N)n1 [LB7, Cefoselis Sulfate]	> 1000 µM		
CON=C(C(=O)NC1C(=O)N2C(C(=O)O)=C(CSC(=O)c3ccco3)CSC12)c1csc(N)n1 (centres unmarked) [LC2, Ceftiofur hydrochloride]	> 1000 µM	80.9 ± 13.2	
Cefotiam Hexetil Hydrochloride [LC9]	> 1000 µM		
Nc1nc2c(c(=O)[nH]1)N=C(CNc1ccc(C(=O)N[C@@H](CCC(=O)O)C(=O)O)cc1)CN2 [compound 10, dihydrofolic acid dihydrate]	60.1 µM and 60 µM		
COc1cccc2c1cc1c3c(cc4c(c32)OCO4)C(=O)N1 [LE2, Aristololactam I]	80.6 µM and 81 µM	70.1	IC50 (recombinant TDP1; [7]): < 100 µM

More lines, main results first:

IC50 (recombinant TDP1; [5])	IC50 (recombinant TDP2; [6]) [µM]	Compound	also measured
	36 ± 1.35	Cc1onc(-c2c(F)cccc2Cl)c1C(=O)N[C@@H]1C(=O)N2[C@@H]1SC(C)(C)[C@@H]2C(=O)O [LC11, Flucloxacillin sodium]	
	99 ± 2.15	CC1(C)S[C@@H]2[C@H](NC(=O)[C@H](N)c3ccc(O)cc3)C(=O)N2[C@H]1C(=O)O [LB11, Amoxicillin Sodium]	
84.5 µM and < 100 µM and 85 µM	201	CC1(C)[C@H](C(=O)O)N2C(=O)C[C@H]2S1(=O)=O [LB6, Sulbactam sodium]	
	35.2	CC(=O)OCC1=C(C(=O)O)N2C(=O)[C@@H](NC(=O)Cc3cccs3)[C@H]2SC1 [LG7, Cephalothin sodium]	
5.8 µM and < 100 µM	18.9 ± 2.2	CC(C)(O/N=C(\C(=O)N[C@@H]1C(=O)N2C(C(=O)[O-])=C(C[n+]3ccccc3)CS[C@H]12)c1csc(N)n1)C(=O)O [LF6, Ceftazidime]	
10.3 µM and < 100 µM and 10 µM	2.49	CC1(C)S[C@@H]2[C@H](NC(=O)[C@H](N)c3ccccc3)C(=O)N2[C@H]1C(=O)O [LB9, Ampicillin sodium]	greater potency against TDP2 than TDP1 (recombinant TDP2; ratio of gel-based IC50 values): 4 fold
	81.7 ± 5.2	CO/N=C(\C(=O)N[C@@H]1C(=O)N2C(C(=O)O)=C(COC(C)=O)CS[C@H]12)c1csc(N)n1 [LA9, Cefotaxime]	
73.8 µM and < 100 µM and 74 µM	45.5	CC1(Cn2ccnn2)C(C(=O)O)N2C(=O)CC2S1(=O)=O (centres unmarked) [LF8, Tazobactam acid]	
28 µM and < 100 µM	224 ± 26	CCN1CCN(C(=O)N[C@@H](C(=O)N[C@@H]2C(=O)N3[C@@H]2SC(C)(C)[C@@H]3C(=O)O)c2ccccc2)C(=O)C1=O [LA2, piperacillin]	
4 µM and < 100 µM	69.3 ± 6	C=CC1=C(C(=O)O)N2C(=O)[C@@H](NC(=O)/C(=N\OCC(=O)O)c3csc(N)n3)[C@H]2SC1 [LH5, Cefixime]	
> 1000 µM		C[C@@H](O)[C@H]1C(=O)N2C(C(=O)O)=C(S[C@@H]3CN[C@H](C(=O)N(C)C)C3)[C@H](C)[C@H]12 [LF1, Meropenem]	
> 1000 µM		CO/N=C(\C(=O)N[C@@H]1C(=O)N2C(C(=O)O)=C(C[N+]3(C)CCCC3)CS[C@H]12)c1csc(N)n1 [LB1, Cefepime Dihydrochloride Monohydrate]	
> 1000 µM		CC1=C(C(=O)O)N2C(=O)[C@@H](NC(=O)[C@H](N)c3ccccc3)[C@H]2SC1 [LH11, Cephalexin]	
> 1000 µM		CC1(C)S[C@@H]2[C@H](NC(=O)[C@H](NC(=O)N3CCNC3=O)c3ccccc3)C(=O)N2[C@H]1C(=O)O [LF4, Azlocillin sodium]	
> 1000 µM		CO/N=C(\C(=O)N[C@@H]1C(=O)N2C(C(=O)OC(C)OC(C)=O)=C(COC(N)=O)CS[C@H]12)c1ccco1 (some centres unmarked) [LF10, Cepazine]	
